Test results: patent US5166198A, “Antiviral phosphonylalkoxy purines” (Beecham p.l.c., priority 1989, dated 1992)
In brackets after ≈: the same amount, converted by molar mass.

Tests used:
Assay type in all cases: cell-based
[1] = system: visna virus (strain K184); experiment: CPE Inhibition Test (Established Monolayer) for Lentiviruses (in SCP cells); details: Visna-maedi virus, read-out: MIC Visna Virus (minimum concentration giving complete protection of the cell monolayers)
Procedure: 3. CPE Inhibition Test (Established Monolayer) for Lentiviruses
3×10^4 sheep choroid plexus (SCP) cells were plated into individual wells of a 96 well microtitre plate in 100 μl of Eagle's MEM with Hanks' salts containing 10% heat inactivated foetal calf serum (FCS). When monolayers had become established (after 1 or 2 days growth) they were washed with 200 μl of maintenance medium (Eagle's MEM with Hanks' salts containing 0.5% FCS) and infected with 100 μl of visna virus (strain K184) in maintenance medium (30 TCID50 /ml). Test samples were diluted with maintenance medium in further 96 well microtitre plates over the range 200-0.06 μg/ml by 3-fold dilution steps. 100 μl of the diluted samples was then transferred directly onto virus-infected monolayers (final concentration range therefore […]) and incubated at in a humidified atmosphere containing 5% CO2 until virus-induced CPE was maximal in the untreated virus-infected controls (usually 12-14 days). The plates were fixed with formal saline and stained with crystal violet. Virus-induced CPE was then scored microscopically and the minimum concentration of sample giving complete protection of the cell monolayers (MIC) determined.

[2] = system: herpes simplex virus 1 (HSV-1; strain HFEM); experiment: Plaque Reduction Test for Herpes Simplex Virus 1 (in Vero cells); details: Human alphaherpesvirus 1, read-out: IC50 Herpes Simplex virus Type 1
Procedure: (§1) 1. Plaque Reduction Test for Herpes Simplex Viruses 1 and 2.
(§2) Cells (Vero or MRC-5) were grown to confluence in 24 well multi-dishes (well diameter=1.5 cm). The drained cell monolayers were each infected with approximately 50 infectious particles of herpes simplex virus 1 (HSV-1; strain HFEM) or herpes simplex virus 2 (HSV-2; strain MS) in 100 μl of phosphate-buffered saline. The virus was adsorbed for 1 hour at room temperature. After adsorption, residual inoculum was removed from each well and replaced with 0.5 ml of Eagle's MEM containing 5% newborn calf serum and 0.9% agarose (A37). Once the agarose had set, dilutions of the test compound, which had been prepared in Eagle's MEM (containing 5% newborn calf serum), were added, each well receiving 0.5 ml of liquid overlay. The test compound was diluted to give the following series of concentrations: 200, 60, 20, 6 . . . 0.06 μg/ml; final concentrations in the assay ranged, therefore, between 100 μg/ml and 0.03 μg/ml. The infected cultures were incubated at 37° C. in a humidified atmosphere of 5% CO2 until plaques were clearly visible (2 or 3 days for Vero cells, usually 1 day for MRC-5 cells).
(§3) Cultures from 1 and 2 were fixed in formal saline, the agarose overlays were carefully washed off, and then the cell monolayers were stained with carbol fuchsin. A stereo microscope was used to count plaques. The IC50 (concentration of drug which inhibits the number of plaques formed by 50% relative to the number of plaques observed in virus control monolayers) of the test compound was calculated. In addition, the monolayers were examined for evidence of drug-induced cytotoxicity; the minimum concentration at which cytotoxicity occurs was recorded.

[3] = system: varicella zoster virus (VZV; Ellen strain); experiment: Plaque Reduction Test for Varicella Zoster-Virus (in MRC-5 cells); details: Human alphaherpesvirus 3, MRC5; Ellen strain in MRC-5 cells
Procedure: 2. Plaque Reduction Test for Varicella Zoster-Virus
as §2, with “MRC-5 cells” for “Cells (Vero or MRC-5)”, “varicella zoster” for “herpes simplex”, “(VZV; Ellen strain)” for “1 (HSV-1; strain HFEM) or herpes simplex virus 2 (HSV-2; strain MS)”, “heat-inactivated foetal” for “newborn”, “(5” for “(2”, “6 days).” for “3 days for Vero cells, usually 1 day for MRC-5 cells).”
as §3

[4] = system: herpes simplex virus 2 (HSV-2; strain MS); experiment: Plaque Reduction Test for Herpes Simplex Virus 2 (in MRC-5 cells); details: Human alphaherpesvirus 2, MRC5; MS strain in MRC-5 cells; read-out: IC50 Herpes Simplex virus Type 2
Procedure: as §1, §2, §3

SMILES | MIC [1] | IC50 [2] | IC50 [3] | IC50 [4]
Nc1nc2c(ncn2OCCCCP(=O)(O)O)c(=O)[nH]1 [Example 3, 9-(4-Phosphonobutoxy)guanine] | 1 µg/mL (≈ 3.3 µM) | 62 µg/mL (≈ 204 µM) | 6 µg/mL (≈ 19.8 µM) | 23 µg/mL (≈ 75.9 µM)
Nc1nc2c(ncn2OCC(O)CCP(=O)(O)O)c(=O)[nH]1 (stereo not shown) [Example 13, 9-(2-Hydroxy-4-phosphonobutoxy)guanine] | 10 µg/mL (≈ 31.3 µM) | > 100 µg/mL | 29 µg/mL (≈ 90.8 µM) | > 100 µg/mL
Nc1ncnc2c1ncn2OCCCCP(=O)(O)O [Example 7, 9-(4-Phosphonobutoxy)adenine] | 100 µg/mL (≈ 348 µM) | > 100 µg/mL | > 100 µg/mL | > 100 µg/mL
Nc1ncnc2c1ncn2OC(CO)CCP(=O)(O)O (stereo not shown) [Example 11] | 30 µg/mL (≈ 98.9 µM) | > 100 µg/mL | > 100 µg/mL | > 100 µg/mL
Nc1nc(N)c2ncn(OCC(CO)CCP(=O)(O)O)c2n1 (stereo not shown) [Example 20] | 10 µg/mL (≈ 30.1 µM) | > 100 µg/mL | 17 µg/mL (≈ 51.2 µM) | > 100 µg/mL
Nc1nc2c(ncn2OCC(CO)CCP(=O)(O)O)c(=O)[nH]1 (stereo not shown) [Example 18, 9-[2-(Hydroxymethyl)-4-phosphonobutoxy]guanine] | 1 µg/mL (≈ 3 µM) | > 100 µg/mL | 5 µg/mL (≈ 15 µM) | > 100 µg/mL
Nc1nc2c(ncn2OCCCP(=O)(O)O)c(=O)[nH]1 [Example 1, 9-(3-Phosphonopropoxy)guanine] | 3 µg/mL (≈ 10.4 µM) | > 100 µg/mL | 73 µg/mL (≈ 252 µM) | > 100 µg/mL
Nc1nc2c(ncn2OC(CO)CCP(=O)(O)O)c(=O)[nH]1 (stereo not shown) [Example 16, 9-[1-(Hydroxymethyl)-3-phosphonopropoxy]guanine] | 100 µg/mL (≈ 313 µM) | > 100 µg/mL | > 100 µg/mL | > 100 µg/mL
Nc1ncnc2c1ncn2OCC(O)CCP(=O)(O)O (stereo not shown) [Example 15, 9-(2-Hydroxy-4-phosphonobutoxy)adenine] | 100 µg/mL (≈ 330 µM) | > 100 µg/mL | > 100 µg/mL | > 100 µg/mL
Nc1nc(N)c2ncn(OCCCCP(=O)(O)O)c2n1 [Example 5, 2,6-Diamino-9-(4-phosphonobutoxy)purine] | 10 µg/mL (≈ 33.1 µM) | > 100 µg/mL | 17 µg/mL (≈ 56.2 µM) | > 100 µg/mL
